PMC6718478, “A Comprehensive Antimicrobial Activity Evaluation of the Recombinant Microcin J25 Against the Foodborne Pathogens Salmonella and E. coli O157:H7 by Using a Matrix of Conditions” (Frontiers in Microbiology, 2019)
Positions of bridges follow the written chain, without caps; N, C: chain ends. Residues, ends and D or L forms follow the SMILES beside them.

Assays:
chymotrypsin = assay: Resistance to a single protease, inhibition zone read-out; type: in vitro ADME; details: chymotrypsin for 2 and 4 h; 1 × MIC; inhibition zone against S. Pullorum; three replicate experiments
Experimental: (§1) The resistance of recombinant MccJ25 to pepsin, trypsin and chymotrypsin was evaluated as described previously ([Chen et al., 2009]; [Meng et al., 2019]) with slight modification. The indicator Salmonella was prepared (approximately 1 × 10^7 CFU/mL), and 1 mL of bacterial inoculum was transferred into 9 mL of each medium with the recombinant MccJ25 and into corresponding control media without the recombinant MccJ25. LB agar inoculated with the indicator bacteria S. Pullorum (approximately 10^5 viable cells per mL) was poured over plates that had been fitted with Oxford cups to make wells. Then, 150 μL of a 1 × MIC final concentration of recombinant MccJ25 that had been previously treated under various conditions for 2 and 4 h were added to the wells. The agar overlays were incubated overnight at 37°C, and the inhibition zones were recorded.

pepsin = assay: as above; type: in vitro ADME; details: pepsin for 2 and 4 h; 1 × MIC; inhibition zone against S. Pullorum; three replicate experiments
Experimental: as §1

trypsin = assay: as above; type: in vitro ADME; details: trypsin for 2 and 4 h; 1 × MIC; inhibition zone against S. Pullorum; three replicate experiments
Experimental: as §1

S. Pullorum [1] = assay: Antimicrobial activity after treatment with simulated gastric fluid (SGF); type: in vitro ADME, Salmonella Pullorum; details: simulated gastric fluid, 2, 4, and 6 h; 1 × MIC; inhibition zone; three replicate experiments
Experimental: (§2) Biological fluids (SGF; SIF) and serum were prepared as described previously ([Liu et al., 2013]; [Xia et al., 2015]). Then, assays of the antibacterial activity of recombinant MccJ25 in SGF, SIF and serum were performed. S. Pullorum was grown in Mueller-Hinton broth (MHB, Difco Laboratories, Detroit, MI, United States). One milliliter of bacterial inoculum was transferred into 9 mL of each medium with the recombinant MccJ25 and into corresponding control medium without the recombinant MccJ25. LB agar inoculated with the indicator bacteria S. Pullorum (approximately 10^5 viable cells per mL) was poured over plates fitted with Oxford cups to make wells. Hundred and fifty μL of a 1 × MIC final concentration of recombinant MccJ25 samples that had previously been treated with SGF, SIF and serum for 2, 4, and 6 h, respectively, were added to the wells. The agar overlays were incubated overnight at 37°C, and the inhibition zones were recorded.

S. Pullorum [2] = assay: Antimicrobial activity after treatment with simulated intestinal fluid (SIF); type: in vitro ADME, Salmonella Pullorum; details: simulated intestinal fluid, 2, 4, and 6 h; 1 × MIC; inhibition zone; three replicate experiments
Experimental: as §2

S. Pullorum [3] = assay: Antimicrobial activity after treatment with serum; type: in vitro ADME, Salmonella Pullorum; details: murine serum, 2, 4, and 6 h; 1 × MIC; inhibition zone; three replicate experiments
Experimental: as §2

CC[C@H](C)[C@H](NC(=O)CNC(=O)[C@@H](NC(=O)[C@H](Cc1ccccc1)NC(=O)[C@H](Cc1ccc(O)cc1)NC(=O)[C@@H]1CCC(=O)NCC(=O)NCC(=O)N[C@@H](C)C(=O)NCC(=O)N[C@@H](Cc2cnc[nH]2)C(=O)N[C@@H](C(C)C)C(=O)N2CCC[C@H]2C(=O)N1)C(C)C)C(=O)NCC(=O)N[C@H](C(=O)N1CCC[C@H]1C(=O)N[C@H](C(=O)N[C@@H](CO)C(=O)N[C@@H](Cc1ccccc1)C(=O)N[C@@H](Cc1ccc(O)cc1)C(=O)NCC(=O)O)[C@@H](C)CC)[C@@H](C)O [recombinant MccJ25, microcin J25] (GGAGHVPEYFVGIGTPISFYG-OH; lactam N-8)
antimicrobial activity after protease challenge (chymotrypsin): maintained its antimicrobial activity | antimicrobial activity after protease challenge (pepsin): maintained its antimicrobial activity | antimicrobial activity after protease challenge (trypsin): maintained its antimicrobial activity | growth inhibition of S. Pullorum after incubation with SGF (S. Pullorum [1]): still inhibited the growth of S. Pullorum in a manner similar to that of recombinant MccJ25 alone | growth inhibition of S. Pullorum after incubation with SIF (S. Pullorum [2]): still inhibited the growth of S. Pullorum in a manner similar to that of recombinant MccJ25 alone | growth inhibition of S. Pullorum after incubation with serum (S. Pullorum [3]): still inhibited the growth of S. Pullorum in a manner similar to that of recombinant MccJ25 alone
